The values below come from patent publication US10721934B2, “Enhanced preservative” (Arch Chemicals, Inc., priority 2013, dated 2020).

Structures are written as SMILES. Like-named read-outs stand apart in the source and are kept apart here.

Type in all cases: cell-based
One test has as its system Aspergillus brasiliensis. Nature of the test: MIC test, 96 well microtiter plate. To be noted: for MIC: Aspergillus brasiliensis, read-out: Minimum Inhibitory Concentration. How it is done: (§1) MIC set up: A 96 well microtiter plate Minimum Inhibitory Concentration (MIC) test was run in broth suitable for the test organism. Serially diluted actives were prepared in sterilized water, and the start-up concentration varied depending on the efficacy range. Inocula prepared in 2× suitable broth was added into each well, and the final concentrations of bacteria were adjusted to approximately 5×10^5.
(§2) Further MIC tests were conducted using different amine compounds in combination with a pyrithione and two different isothiazolinones. The procedures described in Example No. 1 were used.

The subject of the next test is Aureobasidium pullulans. Put plainly: MIC test, 96 well microtiter plate. To be noted: Aureobasidium pullulans, read-out: Minimum Inhibitory Concentration. The method, then:
as §1, §2

The test system of the next test is Candida albicans. Put plainly: MIC test, 96 well microtiter plate. As to conditions: Candida albicans, read-out: Minimum Inhibitory Concentration. How it is done: as §1, §2
The test system of the next test is Escherichia coli. Nature of the test: MIC test, 96 well microtiter plate. To be noted: Escherichia coli, read-out: Minimum Inhibitory Concentration. The method, then:
as §1, §2

Another test concerns Staphylococcus aureus. Put plainly: MIC test, 96 well microtiter plate. As to conditions: Staphylococcus aureus, read-out: Minimum Inhibitory Concentration. How it is done: as §1, §2
The subject of test [1] is mixed bacterial inoculum (Pseudomonas aeruginosa, Enterobacter cloacae, Escherichia coli, Acinetobacter calcoaceticus). Nature of the test: Repeated inoculation of standard acrylic paint, streak plate rating. How it is done: In the following experiments, a pyrithione, an isothiazolinone, and a biocide enhancing agent in accordance with the present disclosure were combined with a standard acrylic paint. The concentrations of the pyrithione, the isothiazolinone and the biocide enhancing agent were varied. The pyrithione, the isothiazolinone and the biocide enhancing agent were added alone and in various mixtures to the standard acrylic paint.
The acrylic paint was then inoculated three times using a mixed bacterial inoculum. The bacterial inoculum, which comprised a bacterial suspension in water, contained the following four bacteria in equal proportions.
The samples were streak plated at 24, 48, and 72 hours after inoculation. The streak plates were rated as follows;

As to `CCCCCCCCCCCC[N+](C)(C)[O-]` [CDMA Oxide, cocodimethylamine oxide], the MIC with Aspergillus brasiliensis is 17.4 µg/mL; with Aureobasidium pullulans, 13.9 µg/mL; with Candida albicans it was 13.9 µg/mL; in the test with Escherichia coli, 557 µg/mL; with Staphylococcus aureus, 13.9 µg/mL. Further, the streak plate rating in test [1] (Set Five, CDMA Oxide 1200 ppm, 1st inoculation 24 h) is 5 (>45 viable microorganisms Severely contaminated); in test [1] (Set Five, CDMA Oxide 1200 ppm, 1st inoculation 48 h), 5 (>45 viable microorganisms Severely contaminated); in test [1] (Set Five, CDMA Oxide 1200 ppm, 1st inoculation 72 h), 5 (>45 viable microorganisms Severely contaminated); in test [1] (Set Five, CDMA Oxide 1200 ppm, 2nd inoculation 24 h) it was 5 (>45 viable microorganisms Severely contaminated); in test [1] (Set Five, CDMA Oxide 1200 ppm, 2nd inoculation 48 h), 5 (>45 viable microorganisms Severely contaminated); in test [1] (Set Five, CDMA Oxide 1200 ppm, 2nd inoculation 72 h), 5 (>45 viable microorganisms Severely contaminated). The streak plate rating in test [1] (Set Five, CDMA Oxide 1200 ppm, 3rd inoculation 24 h) was 5 (>45 viable microorganisms Severely contaminated); in test [1] (Set Five, CDMA Oxide 1200 ppm, 3rd inoculation 48 h), 5 (>45 viable microorganisms Severely contaminated); in test [1] (Set Five, CDMA Oxide 1200 ppm, 3rd inoculation 72 h), 5 (>45 viable microorganisms Severely contaminated); in test [1] (Set Two, CDMA Oxide alone, ppm not given, 1st inoculation 24 h), 5 (>45 viable microorganisms Severely contaminated); in test [1] (Set Two, CDMA Oxide alone, ppm not given, 1st inoculation 48 h) it was 5 (>45 viable microorganisms Severely contaminated); in test [1] (Set Two, CDMA Oxide alone, ppm not given, 1st inoculation 72 h) it was 5 (>45 viable microorganisms Severely contaminated). The streak plate rating in test [1] (Set Two, CDMA Oxide alone, ppm not given, 2nd inoculation 24 h) is 5 (>45 viable microorganisms Severely contaminated); in test [1] (Set Two, CDMA Oxide alone, ppm not given, 2nd inoculation 48 h) it was 5 (>45 viable microorganisms Severely contaminated); in test [1] (Set Two, CDMA Oxide alone, ppm not given, 2nd inoculation 72 h), 5 (>45 viable microorganisms Severely contaminated); in test [1] (Set Two, CDMA Oxide alone, ppm not given, 3rd inoculation 24 h), 5 (>45 viable microorganisms Severely contaminated); in test [1] (Set Two, CDMA Oxide alone, ppm not given, 3rd inoculation 48 h) it was 5 (>45 viable microorganisms Severely contaminated); in test [1] (Set Two, CDMA Oxide alone, ppm not given, 3rd inoculation 72 h), 5 (>45 viable microorganisms Severely contaminated).

For the molecule `CCCCCCCC[N+](C)(C)[O-]` [DMOA Oxide, N,N-dimethyloctylamine-n-oxide], the MIC in the test on Aspergillus brasiliensis (single chemical) turned out to be 500 µg/mL; in the test on Aureobasidium pullulans (single chemical), 500 µg/mL; with Candida albicans (single chemical), 375 µg/mL; with Escherichia coli (single chemical), 750 µg/mL; in the test with Staphylococcus aureus (single chemical) it was 250 µg/mL. For the same molecule, the “Minimum Inhibitory Concentration” value with Aspergillus brasiliensis (single chemical) was determined as 500 ppm.
